Test: Storage stability testing of the syrup at ICH conditions, HPLC assay of ribavirin and degradation products
Type: physicochemical
From the text: The stability of a syrup formulation of the present invention was compared to conventional liquid formulations that contain ribavirin that are marketed by ICN. Degradation of syrup formulations containing ribavirin is observed during storage stability testing, as is evidenced by declining concentrations of the active ingredient and a concomitant formation of degradates. The most frequent degradation product that has been identified is the carboxylic acid product of ribavirin. Based upon these tests, it is believed that the syrup formulations of the present invention have a shelf life of greater than two years.
This analysis was performed via HPLC methods that are known to one of skill in the art. Stability data was also performed on the formulation of the present invention at 18 months after formulation, and measured by HPLC techniques as known by one of skill in the art as set forth in Table 2 below.
Only results that exceed the limit of quantitation (LOQ) were included in the attached tables. The LOQ of each degradation product is 0.05%. Synthesis-related impurities of ribavirin, the α-anomer and 5′-acetylribavirin, were not degradation products and are not monitored in the drug product. Each degradation product result was rounded to one significant figure according to the rounding convention described in the USP. The results for total degradation products that were derived from the sum of individual degradation products that contain one more significant figure than those shown in the data tables and then rounded to one decimal place.

Measured: ribavirin degradation after storage

NC(=O)c1ncn([C@@H]2O[C@H](CO)[C@@H](O)[C@H]2O)n1 [Ribavirin, 1β-D ribofuranosyl-1H-1,2,4 triazole 3-carboxamide]
did not degrade significantly: 25° C./60% RH, up to 12 months | 30° C./60% RH, up to 12 months | ICH accelerated condition 40° C./75% RH, up to 6 months

Reference: US20030087844A1, “Ribavirin syrup formulations” (SCHERING CORPORATION, priority 2001, published 2003)
